In patent US9873690B2, “3-indol substituted derivatives, pharmaceutical compositions and methods for use” (Pfizer Inc., priority 2015, dated 2018) one finds IC50 data, which are given here for 26 compounds.

Molecules are shown by their SMILES.

T1 sequence (P48775 whole entry): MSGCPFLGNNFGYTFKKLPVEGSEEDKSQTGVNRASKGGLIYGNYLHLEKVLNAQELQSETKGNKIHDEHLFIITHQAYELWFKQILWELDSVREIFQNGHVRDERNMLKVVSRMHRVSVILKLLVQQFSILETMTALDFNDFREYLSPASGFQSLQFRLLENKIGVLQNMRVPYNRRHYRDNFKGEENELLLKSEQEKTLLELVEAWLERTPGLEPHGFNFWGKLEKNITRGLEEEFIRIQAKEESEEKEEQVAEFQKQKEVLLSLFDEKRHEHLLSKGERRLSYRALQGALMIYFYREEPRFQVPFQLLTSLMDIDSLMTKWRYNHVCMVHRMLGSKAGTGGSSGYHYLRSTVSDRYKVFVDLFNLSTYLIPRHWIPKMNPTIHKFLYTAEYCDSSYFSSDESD

The test has as its target T1, hTDO2 (Homo sapiens, UniProt P48775).
T1 construct: endogenous in cells; host or cells: A172 human brain glioblastoma cells (ATCC CRL-1620)
The test can be described thus: Cellular assay for TDO2 activity determination in A172 cells. In kind it is cell-based. The settings on record: human glioblastoma A172 cells naturally expressing hTDO2; overnight incubation; kynurenine by absorbance at 480 nm. The protocol: The compounds of formula I inhibit the activity of human TDO2 in cells that constitutively express TDO2, such as A172 cells. A172 is a cell line derived from human brain glioblastoma cells. The cells are available from the American Type Culture Collection (ATCC®) as CRL-1620™.
The assay (adapted from Pilotte L et al., Proc Natl Acad Sci USA, 2012, 109(7), 2497-502) was performed in 96-well flat bottom plates seeded with human glioblastoma A172 cells, naturally expressing hTDO2 (prepared as described in Tilman et al., Mol Cancer, 2007, 17(6), 80), at a concentration of 1.25×10^4 cells/well in a final volume of 200 μL. To determine TDO, the cells were incubated overnight at 37° C. at 5% CO2 in IMDM (Invitrogen) supplemented with 2% FBS and 2% penicillin/streptomycin in the presence of the compounds of the present invention, at different concentrations.
The plates were then centrifuged 5 min at 1000 rpm, and 100 μL of the supernatant were collected in a conical plate, 30 μL of TCA 30% were added and a further centrifuged at 3000×g for 10 minutes. 100 μL of the supernatant were collected in a flat bottomed plate and 100 μL of 2% (w/v) 4-(dimethylamino)-benzaldehyde in acetic acid and incubated for 5 min at room temperature. Kynurenine concentrations were determined by measuring the absorbance at 480 nm. A standard curve was made with pure kynurenine. The TDO activity was measured as described above using ten serial concentrations of the compounds of the present invention. Data were fitted using the Prism™ software (GraphPad Software, Inc.) using standard parameters.
The biological activity of representative compounds in human brain glioblastoma cells as determined in the above-referenced assay is summarized in the following table: […]
By IC50 is commonly meant the midpoint of a concentration-inhibition curve. A low value points to greater potency in that assay. `CC1c2cc(-c3c[nH]c4cc(F)ccc34)ccc2S(=O)(=O)N1CC[S+](C)[O-]` (single isomer, unassigned; (+)) [Example 58, (+)-5-(6-fluoro-1H-indol-3-yl)-3-methyl-2-(2-(methylsulfinyl)ethyl)-2,3-dihydrobenzo[d]isothiazole 1,1-dioxide] gave an IC50 of 267 nM.

`CNS(=O)(=O)CCN1C(C)c2cc(-c3c[nH]c4cc(F)ccc34)ccc2S1(=O)=O` (single isomer, unassigned; (+)) [Example 60, (+)-2-(5-(6-fluoro-1H-indol-3-yl)-3-methyl-1,1-dioxidobenzo[d]isothiazol-2(3H)-yl)-N-methylethane-1-sulfonamide] gave an IC50 of 133 nM.

For `CC1c2cc(-c3c[nH]c4cc(F)ccc34)ccc2S(=O)(=O)N1CCS(N)(=O)=O` (single isomer, unassigned; (+)) [Example 61, (+)-2-(5-(6-fluoro-1H-indol-3-yl)-3-methyl-1,1-dioxidobenzo[d]isothiazol-2(3H)-yl)ethane-1-sulfonamide], it took 309 nM to reach half-maximal inhibition (IC50).

As for `CC1c2cc(-c3c[nH]c4cc(F)ccc34)ccc2S(=O)(=O)N1CCO` (single isomer, unassigned; (+)) [Example 63, (+)-5-(6-fluoro-1H-indol-3-yl)-2-(2-hydroxyethyl)-3-methyl-2,3-dihydrobenzo[d]isothiazole 1,1-dioxide], the half-maximal inhibitory concentration (IC50) worked out at 70 nM.

On to `CC1c2cc(-c3c[nH]c4cc(F)ccc34)ccc2S(=O)(=O)N1CCN1CCNCC1=O` (single isomer, unassigned; (+)) [Example 66, (+)1-(2-(5-(6-fluoro-1H-indol-3-yl)-3-methyl-1,1-dioxidobenzo[d]isothiazol-2(3H)-yl)ethyl)piperazin-2-one], for which the concentration for half-maximal inhibition (IC50) stood at 244 nM.

Regarding `Cc1cc(O)n(CCN2C(C)c3cc(-c4c[nH]c5cc(F)ccc45)ccc3S2(=O)=O)n1` (single isomer, unassigned; (+)) [Example 67, (+)-5-(6-fluoro-1H-indol-3-yl)-2-(2-(5-hydroxy-3-methyl-1H-pyrazol-1-yl)ethyl)-3-methyl-2,3-dihydrobenzo[d]isothiazole 1,1-dioxide], the half-inhibitory concentration (IC50) turned out to be 9500 nM.

As to `CC1c2cc(-c3c[nH]c4cc(F)ccc34)ccc2S(=O)(=O)N1CCN1CCOC1=O` (single isomer, unassigned; (+)) [Example 69, (+)-3-(2-(5-(6-fluoro-1H-indol-3-yl)-3-methyl-1,1-dioxidobenzo[d]isothiazol-2(3H)-yl)ethyl)oxazolidin-2-one], the midpoint of inhibition, the IC50, lay at 264 nM.

For the compound `CC(=O)N1CCC(N2C(C)c3cc(-c4c[nH]c5cc(F)ccc45)ccc3S2(=O)=O)CC1` (single isomer, unassigned; (+)) [Example 71, (+)-1-(4-(5-(6-fluoro-1H-indol-3-yl)-3-methyl-1,1-dioxidobenzo[d]isothiazol-2(3H)-yl)piperidin-1-yl)ethanone], the half-inhibitory concentration (IC50) stood at 342 nM.

`CC(=O)N1CCC(N2C(C)c3cc(-c4c[nH]c5cc(F)ccc45)ccc3S2(=O)=O)C1` (single isomer, unassigned; (+)) [Example 73, (+)-1-(3-(5-(6-fluoro-1H-indol-3-yl)-3-methyl-1,1-dioxidobenzo[d]isothiazol-2(3H)-yl)pyrrolidin-1-yl)ethanone] returned a concentration for half-maximal inhibition (IC50) of 246 nM.

`CC(=O)N1CCC(N2C(C)c3cc(-c4c[nH]c5cc(F)ccc45)ccc3S2(=O)=O)C1` (single isomer, unassigned; (+)) [Example 74, (+)-1-(3-(5-(6-fluoro-1H-indol-3-yl)-3-methyl-1,1-dioxidobenzo[d]isothiazol-2(3H)-yl)pyrrolidin-1-yl)ethanone] had an IC50 of 254 nM.

As for `CC1c2cc(-c3c[nH]c4cc(F)ccc34)ccc2S(=O)(=O)N1CC1CCNCC1` (single isomer, unassigned; (+)) [Example 78, (+)-5-(6-fluoro-1H-indol-3-yl)-3-methyl-2-(piperidin-4-ylmethyl)-2,3-dihydrobenzo[d]isothiazole 1,1-dioxide], the concentration for half-maximal inhibition (IC50) was determined as 174 nM.

For `CC1c2cc(-c3c[nH]c4cc(F)ccc34)ccc2S(=O)(=O)N1CC1CCN(C)CC1` (single isomer, unassigned; (+)) [Example 80, (+)-5-(6-fluoro-1H-indol-3-yl)-3-methyl-2-((1-methylpiperidin-4-yl)methyl)-2,3-dihydrobenzo[d]isothiazole 1,1-dioxide], the IC50 turned out to be 56 nM.

`CC1c2cc(-c3c[nH]c4cc(F)ccc34)ccc2S(=O)(=O)N1C[C@]1(C)CCC(=O)N1` (single isomer, unassigned; (+)) [Example 81] displayed an IC50 of 473 nM.

With `CC1c2cc(-c3c[nH]c4cc(F)ccc34)ccc2S(=O)(=O)N1C[C@]1(C)CCC(=O)N1` (single isomer, unassigned; (+)) [Example 82], 61 nM corresponded to half-maximal inhibition (IC50).

In the case of `CC1c2cc(-c3c[nH]c4cc(F)ccc34)ccc2S(=O)(=O)N1Cc1ncn(C)n1` (single isomer, unassigned; (+)) [Example 86, (+)-5-(6-fluoro-1H-indol-3-yl)-3-methyl-2-((1-methyl-1H-1,2,4-triazol-3-yl)methyl)-2,3-dihydrobenzo[d]isothiazole 1,1-dioxide], the IC50 amounted to 97 nM.

The compound `CC1c2cc(-c3c[nH]c4cc(F)ccc34)ccc2S(=O)(=O)N1CC1(C)COC(=O)N1` (single isomer, unassigned; (+)) [Example 89, (+)-4-((5-(6-fluoro-1H-indol-3-yl)-3-methyl-1,1-dioxidobenzo[d]isothiazol-2(3H)-yl)methyl)-4-methyloxazolidin-2-one] yielded an IC50 of 58 nM.

Regarding `CC1c2cc(-c3c[nH]c4cc(F)ccc34)ccc2S(=O)(=O)N1CC1(C)COC(=O)N1` (single isomer, unassigned; (+)) [Example 90, (+)-4-((5-(6-fluoro-1H-indol-3-yl)-3-methyl-1,1-dioxidobenzo[d]isothiazol-2(3H)-yl)methyl)-4-methyloxazolidin-2-one], the IC50 is 358 nM.

The compound `CC1c2cc(-c3c[nH]c4cc(F)ccc34)ccc2S(=O)(=O)N1C1CNC1` (single isomer, unassigned; (+)) [Example 92, (+)-2-(azetidin-3-yl)-5-(6-fluoro-1H-indol-3-yl)-3-methyl-2,3-dihydrobenzo[d]isothiazole 1,1-dioxide] registered an IC50 of 27 nM.

In turn, `CC1c2cc(-c3c[nH]c4cc(F)ccc34)ccc2S(=O)(=O)N1C[C@@H](O)CO` (single isomer, unassigned; (+)) [Example 94] had an IC50 of 39 nM.

On to `CC1c2cc(-c3c[nH]c4cc(F)ccc34)ccc2S(=O)(=O)N1C[C@H](O)CO` (single isomer, unassigned; (+)) [Example 96], for which the concentration for half-maximal inhibition (IC50) is 30 nM.

`CNC(=O)C(O)CN1C(C)c2cc(-c3c[nH]c4cc(F)ccc34)ccc2S1(=O)=O` (single isomer, unassigned; (+)) [Example 97, (+)-3-(5-(6-fluoro-1H-indol-3-yl)-3-methyl-1,1-dioxidobenzo[d]isothiazol-2(3H)-yl)-2-hydroxy-N-methylpropanamide] showed an IC50 of 33 nM.

Compound `CNC(=O)C(O)CN1C(C)c2cc(-c3c[nH]c4cc(F)ccc34)ccc2S1(=O)=O` (single isomer, unassigned; (+)) [Example 99, (+)-3-(5-(6-fluoro-1H-indol-3-yl)-3-methyl-1,1-dioxidobenzo[d]isothiazol-2(3H)-yl)-2-hydroxy-N-methylpropanamide] showed a half-maximal inhibitory concentration (IC50) of 180 nM.

The compound `CNC(=O)C(N)CN1C(C)c2cc(-c3c[nH]c4cc(F)ccc34)ccc2S1(=O)=O` (single isomer, unassigned; (+)) [Example 102, (+)-2-amino-3-(5-(6-fluoro-1H-indol-3-yl)-3-methyl-1,1-dioxidobenzo[d]isothiazol-2(3H)-yl)-N-methylpropanamide] had an IC50 of 114 nM.

In the case of `CNC(=O)C(N)CN1C(C)c2cc(-c3c[nH]c4cc(F)ccc34)ccc2S1(=O)=O` (single isomer, unassigned; (+)) [Example 104, (+) 2-amino-3-(5-(6-fluoro-1H-indol-3-yl)-3-methyl-1,1-dioxidobenzo[d]isothiazol-2(3H)-yl)-N-methylpropanamide], the IC50 came to 120 nM.

For `CNC(=O)C(CN1C(C)c2cc(-c3c[nH]c4cc(F)ccc34)ccc2S1(=O)=O)OC` (single isomer, unassigned; (+)) [Example 105, (+)-3-(5-(6-fluoro-1H-indol-3-yl)-3-methyl-1,1-dioxidobenzo[d]isothiazol-2(3H)-yl)-2-methoxy-N-methylpropanamide], it took 188 nM to reach half-maximal inhibition (IC50).

Regarding `CNC(=O)C(CN1C(C)c2cc(-c3c[nH]c4cc(F)ccc34)ccc2S1(=O)=O)OC` (single isomer, unassigned; (+)) [Example 107, (+)-3-(5-(6-fluoro-1H-indol-3-yl)-3-methyl-1,1-dioxidobenzo[d]isothiazol-2(3H)-yl)-2-methoxy-N-methylpropanamide], the concentration for half-maximal inhibition (IC50) turned out to be 499 nM.
